This note sets out measurements from US20240390340A1 (INCYTE CORPORATION, priority 2023, published 2024).

Assay [1] deals with KRAS G12V (Homo sapiens, UniProt P01116, G12V). The experiment in a line: GDP-GTP exchange assay (bodipy-GDP/GppNHp, SOS1), KRAS G12V. Conditions: KRAS G12V mutant; value for the most potent isomer quoted for certain compounds; read-out: G12V (KRAS G12V exchange assay IC50). The class given is biochemical. On the procedure:
(§1) The inhibitor potency of the exemplified compounds was determined in a fluorescence based guanine nucleotide exchange assay, which measures the exchange of bodipy-GDP (fluorescently labeled GOP) for GppNHp (Non-hydrolyzable GTP analog) to generate the active state of KRAS in the presence of SOS1 (guanine nucleotide exchange factor). Inhibitors were serially diluted in DMSO and a volume of 0.1 μL was transferred to the wells of a black low volume 384-well plate. 5 μL/well volume of bodipy-loaded KRAS G12D diluted to 2.5 nM in assay buffer (25 mM Hepes pH 7.5, 50 mM NaCl, 10 mM MgCl2 and 0.01% Brij-35) was added to the plate and pre-incubated with inhibitor for 4 h at r.t. Appropriate controls (enzyme with no inhibitor or with a G12D inhibitor) were included on the plate. The exchange was initiated by the addition of a 5 μL/well volume containing 1 mM GppNHp and 300 nM SOS1 in assay buffer. The 10 μL/well reaction concentration of the bodipy-loaded KRAS G12D, GppNHp, and SOS1 were 2.5 nM, 500 μM, and 150 nM, respectively. The reaction plates were incubated at r.t. for 2 h, a time estimated for complete GDP-GTP exchange in the absence of inhibitor. For the KRAS G12V mutant, similar guanine nucleotide exchange assays were used with 2.5 nM as final concentration for the bodipy loaded KRAS proteins and 3 h incubation after adding GppNHp-SOS1 mixture. A cyclic peptide described to selectively bind G12D mutant (Sakamoto et al., BBRC 484.3 (2017), 605-611) or internal compounds with confirmed binding were used as positive controls in the assay plates. Fluorescence intensities were measured on a PheraStar plate reader instrument (BMG Labtech) with excitation at 485 nm and emission at 520 nm.
(§2) Either GraphPad prism or Genedata Screener SmartFit was used to analyze the data. The IC50 values were derived by fitting the data to a four parameter logistic equation producing a sigmoidal dose-response curve with a variable Hill coefficient.
(§3) The symbol “†” indicates IC50≤100 nM, “††” indicates IC50>100 nM but ≤1 μM; and “†††” indicates IC50 is >1 μM but ≤5 μM, “††††” indicates IC50 is >5 μM but ≤10 μM. “NA” indicates IC50 not available.

The target in assay [2] is KRAS G12D (Homo sapiens, UniProt P01116, G12D). The experiment in a line: GDP-GTP exchange assay (bodipy-GDP/GppNHp, SOS1), KRAS G12D. The assay is classed as biochemical. The conditions noted are these: bodipy-loaded KRAS G12D 2.5 nM, 4 h pre-incubation; value for the most potent isomer quoted for certain compounds; read-out: G12D (KRAS G12D exchange assay IC50). On the procedure: as §1, §2, §3
KRAS G12D, sequence (P01116 1-188 isoform P01116-2 G12D): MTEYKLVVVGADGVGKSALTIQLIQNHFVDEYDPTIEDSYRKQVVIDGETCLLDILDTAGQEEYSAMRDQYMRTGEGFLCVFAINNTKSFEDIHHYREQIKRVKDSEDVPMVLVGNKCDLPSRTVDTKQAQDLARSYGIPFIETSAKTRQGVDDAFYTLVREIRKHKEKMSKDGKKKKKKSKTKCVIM

In general, IC50 refers to the concentration needed to halve the response being measured.

KRAS G12V, sequence (P01116 1-188 isoform P01116-2 G12V): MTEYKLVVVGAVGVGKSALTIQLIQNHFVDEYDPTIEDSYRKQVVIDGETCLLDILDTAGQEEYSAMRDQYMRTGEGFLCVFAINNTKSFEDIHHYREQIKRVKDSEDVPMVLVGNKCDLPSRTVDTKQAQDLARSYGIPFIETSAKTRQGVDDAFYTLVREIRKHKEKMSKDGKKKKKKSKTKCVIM

With `Cc1nc2c(F)c(-c3cccc(Cl)c3Cl)c(CCC#N)cc2c2c1cc([C@H]1C[C@H](Oc3cccc(C(F)(F)F)c3)CN1C(=O)C1CC1)n2[C@H]1[C@H]2CN[C@@H]1C2` [Example 172], the IC50 in assay [1] and in assay [2] was not above 100 nM each time.

For `Cc1nc2c(F)c(-c3cccc(Cl)c3Cl)c(CCC#N)cc2c2c1cc([C@H]1C[C@H](Oc3cccnc3)CN1C(=O)C1CC1)n2[C@H]1[C@H]2CN[C@@H]1C2` [Example 114], the IC50 in assay [1] and in assay [2] was not above 100 nM throughout.

In the case of `Cc1cn([C@H]2C[C@H](c3cc4c(C)nc5c(F)c(-c6cccc(Cl)c6Cl)c(CCC#N)cc5c4n3[C@H]3[C@H]4CN[C@@H]3C4)N(C(=O)C3CC3)C2)cn1` [Example 282], the IC50 in assay [1] and in assay [2] was not above 100 nM throughout.

`Cc1nc2c(F)c(-c3cccc(Cl)c3Cl)c(CCC#N)cc2c2c1cc([C@H]1C[C@H](Oc3ccnc(N4CC(C(F)F)C4)c3)CN1C(=O)C1CC1)n2[C@H]1[C@H]2CN[C@@H]1C2` [Example 370]: the IC50 in assay [1] and in assay [2] was not above 100 nM throughout.

As for `Cc1nc2c(F)c(-c3cccc(Cl)c3Cl)c(CCC#N)cc2c2c1cc([C@H]1C[C@H](OCc3ccn(C(F)(F)F)n3)CN1C(=O)C1(C)CC1)n2[C@H]1[C@H]2CN[C@@H]1C2` [Example 310], the IC50 in assay [1] and in assay [2] was not above 100 nM each time.

On to `Cc1nc2c(F)c(-c3cccc(Cl)c3Cl)c(CCC#N)cc2c2c1cc([C@H]1C[C@H](Oc3ccc(C#N)cc3F)CN1C(=O)C1CC1)n2[C@H]1[C@H]2CN[C@@H]1C2` [Example 291], for which the IC50 in assay [1] and in assay [2] was not above 100 nM throughout.

Regarding `Cc1nc2c(F)c(-c3cccc(Cl)c3Cl)c(CCC#N)cc2c2c1cc([C@H]1C[C@H](OCc3cncs3)CN1C(=O)C1CC1)n2[C@H]1[C@H]2CN[C@@H]1C2` [Example 97], the IC50 in assay [1] and in assay [2] was not above 100 nM in each case.

For the molecule `CCc1cccc(O[C@H]2C[C@H](c3cc4c(C)nc5c(F)c(-c6cccc(Cl)c6Cl)c(CCC#N)cc5c4n3[C@H]3[C@H]4CN[C@@H]3C4)N(C(=O)C3CC3)C2)c1` [Example 167], the IC50 in assay [1] and in assay [2] was not above 100 nM in each case.

For the molecule `Cc1cc(C(C)O[C@H]2C[C@H](c3cc4c(C(C)O)nc5c(F)c(-c6cccc(Cl)c6Cl)c(CCC#N)cc5c4n3[C@H]3[C@H]4CN[C@@H]3C4)N(C(=O)C3CC3)C2)ns1` (stereo partly drawn) [Example 335], the IC50 in assay [1] and in assay [2] was not above 100 nM throughout.

For the molecule `CC(O)c1nc2c(F)c(-c3cccc(Cl)c3Cl)c(CCC#N)cc2c2c1cc([C@H]1C[C@H](OCc3c(F)cccc3F)CN1C(=O)C1(C)CC1)n2[C@H]1[C@H]2CN[C@@H]1C2` (stereo partly drawn) [Example 185], the IC50 in assay [1] and in assay [2] was not above 100 nM in each case.

As for `Cc1nc2c(F)c(-c3cccc(Cl)c3Cl)c(CCC#N)cc2c2c1cc([C@H]1C[C@H](n3cc(C#N)cn3)CN1C(=O)C1CC1)n2[C@H]1[C@H]2CN[C@@H]1C2` [Example 281], the IC50 in assay [1] and in assay [2] was not above 100 nM throughout.

Turning to `Cc1nc2c(F)c(-c3cccc(Cl)c3Cl)c(CCC#N)cc2c2c1cc([C@H]1C[C@H](OCc3cc(C(F)(F)F)on3)CN1C(=O)C1CC1)n2[C@H]1[C@H]2CN[C@@H]1C2` [Example 361], the IC50 in assay [1] and in assay [2] was not above 100 nM each time.

With `Cc1ncc(CO[C@H]2C[C@H](c3cc4c(C)nc5c(F)c(-c6cccc(Cl)c6Cl)c(CCC#N)cc5c4n3[C@H]3[C@H]4CN[C@@H]3C4)N(C(=O)C3CC3)C2)s1` [Example 90], the IC50 in assay [1] and in assay [2] was not above 100 nM each time.

As for `Cc1nc2c(F)c(-c3cccc(Cl)c3Cl)c(CCC#N)cc2c2c1cc([C@H]1C[C@H](Oc3ccc(C#N)nc3)CN1C(=O)C1CC1)n2[C@H]1[C@H]2CN[C@@H]1C2` [Example 290], the IC50 in assay [1] and in assay [2] was not above 100 nM each time.

With `Cc1nc2c(F)c(-c3cccc(Cl)c3Cl)c(CCC#N)cc2c2c1cc([C@H]1C[C@H](n3ccc(CC#N)n3)CN1C(=O)C1CC1)n2[C@H]1[C@H]2CN[C@@H]1C2` [Example 316], the IC50 in assay [1] and in assay [2] was not above 100 nM each time.

As for `Cc1nc(CO[C@H]2C[C@H](c3cc4c(C)nc5c(F)c(-c6cccc(Cl)c6Cl)c(CCC#N)cc5c4n3[C@H]3[C@H]4CN[C@@H]3C4)N(C(=O)C3CC3)C2)cs1` [Example 107], the IC50 in assay [1] and in assay [2] was not above 100 nM each time.

On to `Cc1cc(CO[C@H]2C[C@H](c3cc4c(C)nc5c(F)c(-c6cccc(Cl)c6Cl)c(CCC#N)cc5c4n3[C@H]3[C@H]4CN[C@@H]3C4)N(C(=O)C3CC3)[C@H]2C)ns1` [Example 212], for which the IC50 in assay [1] and in assay [2] was not above 100 nM each time.

On to `Cc1nc2c(F)c(-c3cccc(Cl)c3Cl)c(CCC#N)cc2c2c1cc([C@H]1C[C@H](OCc3c(F)cccc3F)CN1C(=O)N(C)c1ccccc1)n2[C@H]1[C@H]2CN[C@@H]1C2` [Example 197], for which the IC50 was not above 100 nM in assay [1] and 100 to 1000 nM in assay [2].

Regarding `Cc1nc2c(F)c(-c3cccc(Cl)c3Cl)c(CCC#N)cc2c2c1cc([C@H]1C[C@H](OCc3ccnn3C(F)F)CN1C(=O)C1CC1)n2[C@H]1[C@H]2CN[C@@H]1C2` [Example 313], the IC50 in assay [1] and in assay [2] was not above 100 nM in each case.

In the case of `Cc1ccnc(O[C@H]2C[C@H](c3cc4c([C@@H](C)O)nc5c(F)c(-c6cccc(Cl)c6Cl)c(CCC#N)cc5c4n3[C@H]3C4CNC3C4)N(C(=O)C3CC3)C2)c1` (stereo partly drawn) [Example 424], the half-inhibitory concentration (IC50) in assay [1] and in assay [2] was not above 100 nM throughout.

For `Cc1nc2c(F)c(-c3cccc(Cl)c3Cl)c(CCC#N)cc2c2c1cc([C@H]1C[C@H](OC3CC3C(=O)NC(C)(C)C)CN1C(=O)C1CC1)n2[C@H]1[C@H]2CN[C@@H]1C2` (stereo partly drawn) [Example 378], the IC50 in assay [1] and in assay [2] was not above 100 nM in each case.

Turning to `Cc1nc2c(F)c(-c3cccc(Cl)c3Cl)c(CCC#N)cc2c2c1cc([C@H]1C[C@H](Oc3cccnn3)CN1C(=O)C1CC1)n2[C@H]1[C@H]2CN[C@@H]1C2` [Example 138], the IC50 in assay [1] and in assay [2] was not above 100 nM in each case.

Consider `Cc1nc2c(F)c(-c3cccc(Cl)c3Cl)c(CCC#N)cc2c2c1cc([C@H]1C[C@H](OCc3cocn3)CN1C(=O)C1CC1)n2[C@H]1[C@H]2CN[C@@H]1C2` [Example 112], for which the IC50 in assay [1] and in assay [2] was not above 100 nM throughout.

In the case of `CO[C@@H]1CC[C@@H](O[C@H]2C[C@H](c3cc4c(C)nc5c(F)c(-c6cccc(Cl)c6Cl)c(CCC#N)cc5c4n3[C@H]3[C@H]4CN[C@@H]3C4)N(C(=O)C3CC3)C2)C1` [Example 440], the IC50 in assay [1] and in assay [2] was not above 100 nM each time.

Consider `Cc1nc2c(F)c(-c3cccc(Cl)c3Cl)c(CCC#N)cc2c2c1cc([C@H]1C[C@H](Oc3ccccc3OC(F)F)CN1C(=O)C1CC1)n2[C@H]1[C@H]2CN[C@@H]1C2` [Example 248], for which the IC50 in assay [1] and in assay [2] was not above 100 nM throughout.

Turning to `Cc1nc2c(F)c(-c3cccc(Cl)c3Cl)c(CCC#N)cc2c2c1cc([C@H]1C[C@H](OC[C@H]3C[C@@H](C#N)C3)CN1C(=O)C1CC1)n2[C@H]1[C@H]2CN[C@@H]1C2` [Example 403], the IC50 in assay [1] and in assay [2] was not above 100 nM each time.

Take `Cc1nc2c(F)c(-c3cccc(Cl)c3Cl)c(CCC#N)cc2c2c1cc([C@H]1C[C@H](OCc3cccc(C#N)c3F)CN1C(=O)C1CC1)n2[C@H]1[C@H]2CN[C@@H]1C2` [Example 151]: the IC50 in assay [1] and in assay [2] was not above 100 nM throughout.
